Columns and labels:
Conditions in all cases: treatment: drug + dasatinib (fixed dose, not stated); 5 days
786-O [1] = experiment: GI50 of drug in presence of dasatinib; higher = less potent
Method: (§1)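 Primary HTS combination arm: 8 RCC cell lines treated with 8 doses (up to 10 uM) of each library drug plus a fixed dose of dasatinib (dose not stated) for 5 days; viability read by CellTiter-Glo and normalised to DMSO. GI50 was fitted with XLfit, AUC is the area under the dose-response curve, and minimum viability is the lowest fraction of DMSO viability across doses.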

SN12C [2] = experiment: as above
Method: as §1

ACHN [3] = experiment: as above
Method: as §1

769-P [4] = experiment: as above
Method: as §1

CAKI-1 [5] = experiment: as above
Method: as §1

UO-31 [6] = experiment: as above
Method: as §1

A498 [7] = experiment: as above
Method: as §1

TK-10 [8] = experiment: as above
Method: as §1

786-O [9] = experiment: minimum viability across doses, drug + dasatinib, relative to DMSO (fraction); higher = less growth inhibition
Method: as §1

SN12C [10] = experiment: as above
Method: as §1

ACHN [11] = experiment: as above
Method: as §1

769-P [12] = experiment: as above
Method: as §1

CAKI-1 [13] = experiment: as above
Method: as §1

UO-31 [14] = experiment: as above
Method: as §1

A498 [15] = experiment: as above
Method: as §1

TK-10 [16] = experiment: as above
Method: as §1

786-O [17] = experiment: AUC of dose-response viability curve, drug + dasatinib, normalised to DMSO (arbitrary (AUC of normalised viability)); higher = less growth inhibition
Method: as §1

SN12C [18] = experiment: as above
Method: as §1

ACHN [19] = experiment: as above
Method: as §1

769-P [20] = experiment: as above
Method: as §1

CAKI-1 [21] = experiment: as above
Method: as §1

UO-31 [22] = experiment: as above
Method: as §1

A498 [23] = experiment: as above
Method: as §1

TK-10 [24] = experiment: as above
Method: as §1

| SMILES | GI50 of drug (786-O [1]) | GI50 of drug (SN12C [2]) | GI50 of drug (ACHN [3]) | GI50 of drug (769-P [4]) | GI50 of drug (CAKI-1 [5]) | GI50 of drug (UO-31 [6]) | GI50 of drug (A498 [7]) | GI50 of drug (TK-10 [8]) | minimum viability across doses (786-O [9]) | minimum viability across doses (SN12C [10]) | minimum viability across doses (ACHN [11]) | minimum viability across doses (769-P [12]) | minimum viability across doses (CAKI-1 [13]) | minimum viability across doses (UO-31 [14]) | minimum viability across doses (A498 [15]) | minimum viability across doses (TK-10 [16]) | AUC of dose-response viability curve (786-O [17]) | AUC of dose-response viability curve (SN12C [18]) | AUC of dose-response viability curve (ACHN [19]) | AUC of dose-response viability curve (769-P [20]) | AUC of dose-response viability curve (CAKI-1 [21]) | AUC of dose-response viability curve (UO-31 [22]) | AUC of dose-response viability curve (A498 [23]) | AUC of dose-response viability curve (TK-10 [24]) |
| --- | --- | --- | --- | --- | --- | --- | --- | --- | --- | --- | --- | --- | --- | --- | --- | --- | --- | --- | --- | --- | --- | --- | --- | --- |
| NC1(Cc2ccc(Cl)cc2)CCN(c2ncnc3[nH]ccc23)CC1 + Cc1nc(Nc2ncc(C(=O)Nc3c(C)cccc3Cl)s2)cc(N2CCN(CCO)CC2)n1 [dasatinib] | 353 nM | 4.47 µM | 1480 nM | 5.14 µM | 2550 nM | 3.23 µM | 8.07 µM | 2130 nM | 0.00351 | 0.356 | 0.165 | 0.323 | 0.202 | 0.0115 | 0.401 | 0.207 | 1.97 | 2.36 | 2.04 | 2.5 | 2.19 | 3.84 | 3.16 | 2.38 |
| S=C(NCc1ccc2c(c1)OCO2)N1CCN(c2ncnc3c2oc2ccccc23)CC1 [Amuvatinib (MP-470)] + Cc1nc(Nc2ncc(C(=O)Nc3c(C)cccc3Cl)s2)cc(N2CCN(CCO)CC2)n1 [dasatinib] | 1310 nM | 1.97 µM | 1390 nM | 1.83 µM | > 10000 nM | 2.68 µM | 4.38 µM | 2920 nM | 0.0475 | 0.0599 | 0.156 | 0.282 | 0.57 | 0.0639 | 0.245 | 0.263 | 1.94 | 2.03 | 1.9 | 2.2 | 2.31 | 3.23 | 3.02 | 2.39 |
| CCOc1cc2ncc(C#N)c(Nc3ccc(F)c(Cl)c3)c2cc1NC(=O)/C=C/CN(C)C [Pelitinib (EKB-569)] + Cc1nc(Nc2ncc(C(=O)Nc3c(C)cccc3Cl)s2)cc(N2CCN(CCO)CC2)n1 [dasatinib] | 404 nM | 0.864 µM | 7.21 nM | 0.0484 µM | 60.6 nM | 0.216 µM | 1.08 µM | 61.1 nM | 0.00483 | 0.00631 | 0.00232 | 0.0321 | 0.0303 | 0.0179 | 0.0177 | 0.00649 | 1.79 | 1.78 | 0.845 | 1.38 | 1.17 | 1.8 | 2.55 | 1.43 |
| N#Cc1c(O)c2c(-c3ccc(-c4ccccc4O)cc3)csc2[nH]c1=O + Cc1nc(Nc2ncc(C(=O)Nc3c(C)cccc3Cl)s2)cc(N2CCN(CCO)CC2)n1 [dasatinib] | > 10000 nM | > 10 µM | > 10000 nM | > 10 µM | > 10000 nM | > 10 µM | > 10 µM | > 10000 nM | 0.6 | 0.634 | 0.595 | 0.683 | 0.655 | 1.02 | 0.86 | 0.705 | 2.63 | 2.35 | 2.25 | 2.56 | 2.38 | 4.43 | 3.43 | 2.78 |
| CC1(C)CNc2cc(NC(=O)c3cccnc3NCc3ccncc3)ccc21.O=P(O)(O)O.O=P(O)(O)O [Motesanib Diphosphate] + Cc1nc(Nc2ncc(C(=O)Nc3c(C)cccc3Cl)s2)cc(N2CCN(CCO)CC2)n1 [dasatinib] | > 10000 nM | > 10 µM | > 10000 nM | > 10 µM | > 10000 nM | > 10 µM | > 10 µM | > 10000 nM | 0.714 | 0.711 | 0.512 | 0.599 | 0.542 | 0.944 | 0.877 | 0.724 | 2.74 | 2.56 | 2.3 | 2.34 | 2.39 | 3.93 | 3.26 | 2.87 |
| N#CC[C@H](C1CCCC1)n1cc(-c2ncnc3[nH]ccc23)cn1 + Cc1nc(Nc2ncc(C(=O)Nc3c(C)cccc3Cl)s2)cc(N2CCN(CCO)CC2)n1 [dasatinib] | > 10000 nM | > 10 µM | > 10000 nM | > 10 µM | 4270 nM | > 10 µM | > 10 µM | > 10000 nM | 0.536 | 0.689 | 0.504 | 0.557 | 0.331 | 0.486 | 0.911 | 0.686 | 2.44 | 2.5 | 1.97 | 2.39 | 2.21 | 3.91 | 3.44 | 2.61 |
| Cc1ccc(Nc2nccc(N(C)c3ccc4c(C)n(C)nc4c3)n2)cc1S(N)(=O)=O.Cl [Pazopanib HCl] + Cc1nc(Nc2ncc(C(=O)Nc3c(C)cccc3Cl)s2)cc(N2CCN(CCO)CC2)n1 [dasatinib] | < 3 nM | 3.1 µM | 1340 nM | 8.32 µM | 925 nM | 8.02 µM | > 10 µM | 8590 nM | 0.277 | 0.327 | 0.175 | 0.123 | 0.0765 | 0.248 | 0.522 | 0.469 | 2.29 | 2.37 | 2.13 | 2.22 | 1.86 | 3.27 | 3.16 | 2.54 |

Source: the supplement of paper PMC8149375
